Laboratory results taken from ChEMBL document CHEMBL5241106, “Discovery of a Dual Tubulin and Poly(ADP-Ribose) Polymerase-1 Inhibitor by Structure-Based Pharmacophore Modeling, Virtual Screening, Molecular Docking, and Biological Evaluation” (J Med Chem, 2021).
Calls of active or inactive are those of the source. No cut-off for these calls is given here.

Key:
[1] = target: T1, Tubulin (Homo sapiens) (UniProt P68371+Q9H4B7+P0DPH7+P68366+Q13509+Q71U36+P04350+Q3ZCM7+P07437+P68363+Q9BQE3+Q6PEY2+Q13885+Q9BVA1+Q9BUF5); experiment: Inhibition of tubulin polymerization (unknown origin) at 10 uM by turbidimetric analysis; type: protein-complex assay
[2] = target: Tubulin; experiment: Inhibition of tubulin polymerization (unknown origin) by turbidimetric analysis; type: protein-complex assay, Homo sapiens; details: read-out: IC50
[3] = target: Tubulin (Bos taurus) (UniProt Q6B856+Q862L2+Q862F3); experiment: Inhibition of [3H]colchicine binding to tubulin to bovine brain tubulin at 5 to 50 uM by competitive binding assay; type: tissue-based; details: dose 5-50 µM
[4] = target: Serine/threonine-protein kinase pim-1 (Homo sapiens, UniProt P11309); experiment: Inhibition of PIM-1 (unknown origin)
[5] = target: CDK4/Cyclin D3 (Homo sapiens, UniProt P11802); experiment: Inhibition of CDK4/Cyclin D3 (unknown origin); type: protein-complex assay
[6] = target: Phosphatidylinositol 4,5-bisphosphate 3-kinase catalytic subunit gamma isoform (Homo sapiens, UniProt P48736); experiment: Inhibition of PI3KCG (unknown origin)
[7] = target: T1, Tubulin (Homo sapiens); experiment: Inhibition of tubulin polymerization in human MDA-MB-231 cells assessed as cell shrinkage, increase in nuclear disruption and microtubule dispersion at 0.5 to 2.5 uM incubated for 48 hrs by immunofluorescence assay; type: cell-based; details: dose 0.5-2.5 µM
[8] = target: T1, Tubulin (Homo sapiens); experiment: Inhibition of tubulin polymerization in human MDA-MB-231 cells assessed as blurred or disappeared nucleus and destruction of normal microtubule network at 12.5 uM incubated for 48 hrs by immunofluorescence assay; type: cell-based
[9] = target: T1, Tubulin (Homo sapiens); experiment: Inhibition of tubulin polymerization in human MCF-10A cells assessed as destruction of normal microtubule network at 0.5 to 12.5 uM incubated for 48 hrs by immunofluorescence assay; type: cell-based; details: dose 0.5-12.5 µM
[10] = tested on: MDA-MB-231; experiment: Cytotoxicity against human MDA-MB-231 cells assessed as inhibition of cell growth incubated for 72 hrs by MTT assay; type: functional, cell-based
[11] = Cytotoxicity against human MCF-10A cells assessed as inhibition of cell growth incubated for 72 hrs by MTT assay; type: toxicity, cell-based
[12] = Selectivity index, ratio of IC50 for cytotoxicity against human MCF-10A cells to IC50 for cytotoxicity against human MDA-MB-231 cells; type: toxicity, cell-based; details: MCF-10A cells versus MDA-MB-231 cells, read-out: Ratio IC50
[13] = tested on: MDA-MB-231; experiment: Inhibition of colony formation in human MDA-MB-231 cells measured after 10 days by crystal violet staining based analysis; type: functional, cell-based; details: dose 0.5-12.5 µM, time 10.0 day
[14] = tested on: MDA-MB-231; experiment: Induction of cell cycle arrest in human MDA-MB-231 cells assessed as proportion of cells at G2/M phase at 0.5 uM incubated for 48 hrs by propidium iodide staining based flow cytometry (reference value: 9.81%); type: functional
[15] = tested on: MDA-MB-231; experiment: Induction of cell cycle arrest in human MDA-MB-231 cells assessed as proportion of cells at G2/M phase at 2.5 uM incubated for 48 hrs by propidium iodide staining based flow cytometry (reference value: 9.81%); type: functional
[16] = tested on: MCF-10A; experiment: Induction of cell cycle arrest in human MCF-10A cells at 0.5 to 12.5 uM incubated for 48 hrs by propidium iodide staining based flow cytometry; type: toxicity; details: dose 0.5-12.5 µM
[17] = tested on: MDA-MB-231; experiment: Induction of apoptosis in human MDA-MB-231 cells assessed as apoptotic body formation by measuring change in cell morphology with disruption of cell nuclei incubated for 24 hrs by DAPI staining based confocal laser microscopy; type: functional; details: dose 0.5-12.5 µM
[18] = tested on: MDA-MB-231; experiment: Induction of apoptosis in human MDA-MB-231 cells assessed as early apoptotic cells at 0.5 uM incubated for 48 hrs by Annexin V-FITC/PI staining based flow cytometry (reference value: 1.71%); type: functional
[19] = tested on: MDA-MB-231; experiment: Induction of apoptosis in human MDA-MB-231 cells assessed as necrotic cells at 0.5 uM incubated for 48 hrs by Annexin V-FITC/PI staining based flow cytometry (reference value: 1.86%); type: functional
[20] = tested on: MDA-MB-231; experiment: Induction of apoptosis in human MDA-MB-231 cells assessed as early apoptotic cells at 2.5 uM incubated for 48 hrs by Annexin V-FITC/PI staining based flow cytometry (reference value: 1.71%); type: functional
[21] = tested on: MDA-MB-231; experiment: Induction of apoptosis in human MDA-MB-231 cells assessed as late apoptotic cells at 2.5 uM incubated for 48 hrs by Annexin V-FITC/PI staining based flow cytometry (reference value: 5.06%); type: functional
[22] = tested on: MDA-MB-231; experiment: Induction of apoptosis in human MDA-MB-231 cells assessed as necrotic cells at 2.5 uM incubated for 48 hrs by Annexin V-FITC/PI staining based flow cytometry (reference value: 1.86%); type: functional
[23] = tested on: MDA-MB-231; experiment: Induction of apoptosis in human MDA-MB-231 cells assessed as viable cells at 12.5 uM incubated for 48 hrs by Annexin V-FITC/PI staining based flow cytometry (reference value: 91.4%); type: functional; details: read-out: Activity
[24] = tested on: MDA-MB-231; experiment: Induction of apoptosis in human MDA-MB-231 cells assessed as early apoptotic cells at 12.5 uM incubated for 48 hrs by Annexin V-FITC/PI staining based flow cytometry (reference value: 1.71%); type: functional
[25] = tested on: MDA-MB-231; experiment: Induction of apoptosis in human MDA-MB-231 cells assessed as increase in cleaved caspase-3 level at 0.5 to 12.5 uM incubated for 48 hrs by western blot analysis; type: functional, cell-based; details: dose 0.5-12.5 µM
[26] = tested on: MCF-10A; experiment: Induction of apoptosis in human MCF-10A cells at 0.5 to 12.5 uM incubated for 48 hrs by Annexin V-FITC/PI staining based flow cytometry; type: toxicity, cell-based; details: dose 0.5-12.5 µM
[27] = tested on: MDA-MB-231; experiment: Anticancer activity against human MDA-MB-231 cells xenografted in BALB/c mouse assessed as reduction in tumor weight at 5 mg/kg, ip administered for every 4 days for 7 times; type: functional, organism-based; details: time 28.0 day
[28] = Toxicity in BALB/c mouse xenografted with human MDA-MB-231 cells assessed as change in liver morphological changes at 1 to 5 mg/kg, ip administered every 4 days for 7 times measured at 48 hrs post-last administration by H and E staining based fluorescence microscopic analysis; type: organism-based; details: in vivo, 720 h, dose 1-5 mg/kg, time 30 day
[29] = Toxicity in BALB/c mouse xenografted with human MDA-MB-231 cells assessed as effect on WBC count at 1 to 5 mg/kg, ip administered every 4 days for 7 times measured at 48 hrs post-last administration; type: organism-based; details: in vivo, 720 h, dose 1-5 mg/kg, time 30 day
[30] = Toxicity in BALB/c mouse xenografted with human MDA-MB-231 cells assessed as effect on RBC count at 1 to 5 mg/kg, ip administered every 4 days for 7 times measured at 48 hrs post-last administration; type: organism-based, Erythrocyte; details: in vivo, 720 h, dose 1-5 mg/kg, time 30 day
[31] = Toxicity in BALB/c mouse xenografted with human MDA-MB-231 cells assessed as effect on hemoglobin level at 1 to 5 mg/kg, ip administered every 4 days for 7 times measured at 48 hrs post-last administration; type: organism-based; details: in vivo, 720 h, dose 1-5 mg/kg, time 30 day
[32] = Hepatotoxicity in BALB/c mouse xenografted with human MDA-MB-231 cells assessed as effect on blood AST level at 1 to 5 mg/kg, ip administered every 4 days for 7 times measured at 48 hrs post-last administration; type: toxicity, organism-based; details: in vivo, 720 h, dose 1-5 mg/kg, time 30 day

In the case of `O=c1[nH]c(/C=C/c2cccc(F)c2)nc2ccccc12`, the inhibition [1] is reported as 91%, the IC50 [2] is reported as 0.94 µM and the inhibition [3] is reported as “Active”. The IC50 [4] was over 10 µM, the IC50 [5] was over 10 µM and the IC50 [6] was over 10 µM. For the same molecule, the inhibition [7] was “Active”, the inhibition [8] was “Active” and the inhibition [9] was “inactive”. The Activity [10] was “Active”, the IC50 at 72 h [11] was over 10 µM and the selectivity ratio [12] was over 14. The inhibition [13] was “Dose-Dependent Effect”, the Activity [14] was 23.57% and the Activity [15] was 33.56%. For the same molecule, the Activity [16] was “Non-Toxic”, the Activity [17] was “Dose-Dependent Effect” and the Activity [18] was 2.16%. For the same molecule, the Activity [19] was 0.88%, the Activity [20] was 2.23% and the Activity [21] was 6.62%. For the same molecule, the Activity [22] was 1%, the viability at 12.5 µM [23] was 83.4% and the Activity [24] was 3.32%. The Activity [25] was “Active”, the Activity [26] was “Non-Toxic” and the Activity [27] was “Active”. For the same molecule, the Activity [28] was “Non-Toxic”, the Activity [29] was “Non-Toxic” and the Activity [30] was “Non-Toxic”. For the same molecule, the Activity [31] was “Non-Toxic” and the Activity [32] was “Non-Toxic”.
